Among the data in ChEMBL document CHEMBL1126256, “Structural modifications of camptothecin and effects on topoisomerase I inhibition” (J Med Chem, 1992) are Relative activity values, retold here.

Each structure is given as a SMILES string. Active and inactive are the calls of the source. The calls are words filed in the database; no cut-off is given here.

In assay [1] the target is T1, DNA topoisomerase 1 (Homo sapiens) (UniProt P11387).
T1 sequence (whole entry): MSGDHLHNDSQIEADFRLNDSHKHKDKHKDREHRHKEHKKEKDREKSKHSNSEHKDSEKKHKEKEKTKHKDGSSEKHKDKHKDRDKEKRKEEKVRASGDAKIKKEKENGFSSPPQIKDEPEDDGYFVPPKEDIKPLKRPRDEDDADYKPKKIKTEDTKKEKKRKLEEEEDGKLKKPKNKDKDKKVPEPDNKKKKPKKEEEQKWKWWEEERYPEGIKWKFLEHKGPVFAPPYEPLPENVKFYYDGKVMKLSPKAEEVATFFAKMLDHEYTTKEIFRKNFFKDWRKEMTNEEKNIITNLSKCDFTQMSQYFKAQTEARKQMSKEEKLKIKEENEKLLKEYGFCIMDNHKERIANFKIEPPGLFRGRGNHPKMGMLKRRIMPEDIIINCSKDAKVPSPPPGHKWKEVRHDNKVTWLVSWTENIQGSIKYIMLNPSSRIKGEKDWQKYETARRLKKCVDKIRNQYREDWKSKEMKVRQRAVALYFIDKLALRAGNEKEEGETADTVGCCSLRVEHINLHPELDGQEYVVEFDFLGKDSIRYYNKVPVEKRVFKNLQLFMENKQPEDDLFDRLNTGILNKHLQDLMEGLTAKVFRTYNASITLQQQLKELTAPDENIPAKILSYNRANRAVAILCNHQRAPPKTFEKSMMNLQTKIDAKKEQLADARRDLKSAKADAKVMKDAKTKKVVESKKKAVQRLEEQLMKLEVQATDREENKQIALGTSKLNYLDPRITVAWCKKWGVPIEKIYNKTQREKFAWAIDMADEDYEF
The assay can be described thus: Relative activity against Topoisomerase I was measured at concentration of 25 uM to that of camptothecin; Inactive.

Assay [2] deals with T1, DNA topoisomerase 1 (Homo sapiens). The assay can be described thus: Relative activity against DNA topoisomerase I was measured at concentration of 83 uM to that of camptothecin; Active, 10 fold less than camptothecin.
The target is the same in assay [3]. The assay can be described thus: Relative activity against DNA topoisomerase I was measured at concentration of 625 uM to that of camptothecin; Inactive.
The target is the same in assay [4]. The assay can be described thus: Relative activity against DNA topoisomerase I was measured at concentration of 833 uM to that of camptothecin; Inactive.
The target is the same in assay [5]. The assay can be described thus: Relative activity against DNA topoisomerase I was measured at concentration of 166 uM to that of camptothecin; Inactive.
The target is the same in assay [6]. The assay can be described thus: Relative activity against DNA topoisomerase I was measured at concentration of 200 uM to that of camptothecin; Inactive.
Assay [7] shares this target. The assay can be described thus: Relative activity against DNA topoisomerase I was measured at concentration of 277 uM to that of camptothecin; inactive.
For assay [8] the target is unchanged. The assay can be described thus: Relative activity against DNA topoisomerase I was measured at concentration of 554 uM to that of camptothecin; Active, 50 fold less than camptothecin.
The target is the same in assay [9]. The assay can be described thus: Relative activity against Topoisomerase I was measured at concentration of 360 uM to that of camptothecin; Active, 35 fold less than camptothecin.
Assay [10] shares this target. The assay can be described thus: Relative activity against DNA topoisomerase I was measured at concentration of 12 uM to that of camptothecin.

Regarding `CCC1C(=O)OCc2c1cc1n(c2=O)Cc2ccccc2-1` (configuration not stated), in assay [1], the Relative activity result is “inactive”. Moreover, the Relative activity entry in [2] was “Active”. As for `CCC(C(=O)OC)c1cc(=O)n2c(c1C(=O)OC)-c1nc3ccccc3cc1C2` (configuration not stated), in assay [3], the Relative activity entry was “inactive”. Turning to `COC(=O)Cc1cc(=O)n2c(c1C(=O)OC)C1Cc3ccccc3CC1C2` (configuration not stated), the Relative activity result in [4] was “inactive”. As for `COC(=O)Cc1cc(=O)n2c(c1C(=O)OC)-c1nc3ccccc3cc1C2`, the Relative activity entry in assay [5] is “inactive”. Regarding `CCC(C(=O)OC)c1cc(=O)n2c(c1C(=O)OC)C1Cc3ccccc3CC1C2` (configuration not stated), the Relative activity entry in [4] was “inactive”. With `CCC(C(=O)OC)c1cc2n(c(=O)c1)Cc1cc3ccccc3nc1-2` (configuration not stated), the Relative activity entry in assay [6] was “inactive”.

For `COC(=O)Cc1cc2n(c(=O)c1)Cc1cc3ccccc3nc1-2`, the Relative activity result in [7] is “inactive”. Moreover, in assay [8], the Relative activity entry is “Active”. Take `CCC1C(=O)OCc2c1c(C(=O)OC)c1n(c2=O)Cc2ccccc2-1` (configuration not stated): the Relative activity result in [9] is “Active”. The Relative activity result in [10] is “inactive”. With `CCC1C(=O)OCc2c1c(C(=O)OC)c1n(c2=O)CC2Cc3ccccc3CC12` (configuration not stated), the Relative activity entry in assay [4] was “inactive”.
